Laboratory results reported in PubChem BioAssay AID1963829 (Molecular Pharmacology Branch, DTP, NCI, 2024).

Test system: 935938-334-R-J1-PDC complex spheroid viability
Test: Anticancer human tumor 935938-334-R-J1-PDC patient-derived small intestine adenocarcinoma cell line growth inhibition [POLQ]
Conditions: for IC50: curve of first compound; for viability, T/C: stronger effect = lower value
Outline: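 Three-cell-type spheroids modelling solid tumor plus stroma served as the readout system; POL inhibitors were tested individually and in combination, concentration ranges set by clinical Cmax where known.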

[1] = second compound 0.0316 µM, first compound 0.0316 µM
[2] = second compound 0.0316 µM, first compound 0.1 µM
[3] = second compound 0.0316 µM, first compound 0.316 µM
[4] = second compound 0.0316 µM, first compound 1 µM
[5] = second compound 0.1 µM, first compound 0.0316 µM
[6] = second compound 0.1 µM, first compound 0.1 µM
[7] = second compound 0.1 µM, first compound 0.316 µM
[8] = second compound 0.1 µM, first compound 1 µM
[9] = second compound 0.316 µM, first compound 0.0316 µM
[10] = second compound 0.316 µM, first compound 0.1 µM
[11] = second compound 0.316 µM, first compound 0.316 µM
[12] = second compound 0.316 µM, first compound 1 µM
[13] = second compound 1 µM, first compound 0.0316 µM
[14] = second compound 1 µM, first compound 0.1 µM
[15] = second compound 1 µM, first compound 0.316 µM
[16] = second compound 1 µM, first compound 1 µM
[17] = second compound 3.16 µM, first compound 0.0316 µM
[18] = second compound 3.16 µM, first compound 0.1 µM
[19] = second compound 3.16 µM, first compound 0.316 µM
[20] = second compound 3.16 µM, first compound 1 µM
[21] = second compound 10 µM, first compound 0.0316 µM
[22] = second compound 10 µM, first compound 0.1 µM
[23] = second compound 10 µM, first compound 0.316 µM
[24] = second compound 10 µM, first compound 1 µM
[25] = second compound 0.0316 µM, first compound 3.16 µM
[26] = second compound 0.0316 µM, first compound 10 µM
[27] = second compound 0.1 µM, first compound 3.16 µM
[28] = second compound 0.1 µM, first compound 10 µM
[29] = second compound 0.316 µM, first compound 3.16 µM
[30] = second compound 0.316 µM, first compound 10 µM
[31] = second compound 1 µM, first compound 3.16 µM
[32] = second compound 1 µM, first compound 10 µM
[33] = second compound 3.16 µM, first compound 3.16 µM
[34] = second compound 3.16 µM, first compound 10 µM
[35] = second compound 10 µM, first compound 3.16 µM
[36] = second compound 10 µM, first compound 10 µM
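Also: spheroids exposed to drugs for seven days before viability read.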
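For viability, T/C in this document: 100% = DMSO vehicle control wells.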

CCc1c2c(nc3ccc(O)cc13)-c1cc3c(c(=O)n1C2)COC(=O)[C@]3(O)CC + Nc1ccc(C#CCN(C(=O)Cc2ncc(C(F)(F)F)cc2C(F)(F)F)c2ccc(F)cc2)nn1
IC50 (second compound 0.0316 µM): 20.2 nM
IC50 (second compound 0.1 µM): 17.1 nM
IC50 (second compound 0.316 µM): 18.3 nM
IC50 (second compound 1 µM): 22.3 nM
IC50 (second compound 3.16 µM): 15.1 nM
IC50 (second compound 10 µM): 22.1 nM
viability, T/C (second compound 0.0316 µM, first compound 0.00316 µM): 83.8%
viability, T/C (second compound 0.0316 µM, first compound 0.01 µM): 61.7%
viability, T/C [1]: 44.2%
viability, T/C [2]: 28.6%
viability, T/C [3]: 31.6%
viability, T/C [4]: 29.2%
viability, T/C (second compound 0.1 µM, first compound 0.00316 µM): 93.6%
viability, T/C (second compound 0.1 µM, first compound 0.01 µM): 64.3%
viability, T/C [5]: 33.8%
viability, T/C [6]: 29.6%
viability, T/C [7]: 34.7%
viability, T/C [8]: 32%
viability, T/C (second compound 0.316 µM, first compound 0.00316 µM): 108%
viability, T/C (second compound 0.316 µM, first compound 0.01 µM): 65.8%
viability, T/C [9]: 35.1%
viability, T/C [10]: 36.2%
viability, T/C [11]: 30.6%
viability, T/C [12]: 28.9%
viability, T/C (second compound 1 µM, first compound 0.00316 µM): 109%
viability, T/C (second compound 1 µM, first compound 0.01 µM): 81.8%
viability, T/C [13]: 36.1%
viability, T/C [14]: 32.6%
viability, T/C [15]: 34.4%
viability, T/C [16]: 30.1%
viability, T/C (second compound 3.16 µM, first compound 0.00316 µM): 93.2%
viability, T/C (second compound 3.16 µM, first compound 0.01 µM): 51.8%
viability, T/C [17]: 43.9%
viability, T/C [18]: 40.4%
viability, T/C [19]: 30.8%
viability, T/C [20]: 30.6%
viability, T/C (second compound 10 µM, first compound 0.00316 µM): 88.8%
viability, T/C (second compound 10 µM, first compound 0.01 µM): 67.9%
viability, T/C [21]: 41%
viability, T/C [22]: 37.3%
viability, T/C [23]: 31%
viability, T/C [24]: 32.2%

CC1COCCN1c1cc(C2(S(C)(=N)=O)CC2)nc(-c2ccnc3[nH]ccc23)n1 (stereo unspecified) + COC1C(OC(N)=O)C(O)C(Oc2ccc3c(O)c(NC(=O)c4ccc(O)c(CC=C(C)C)c4)c(=O)oc3c2C)OC1(C)C
IC50 (second compound 0.0316 µM): 2740 nM
IC50 (second compound 0.1 µM): 2130 nM
IC50 (second compound 0.316 µM): 2220 nM
IC50 (second compound 1 µM): 3880 nM
IC50 (second compound 3.16 µM): 2440 nM
IC50 (second compound 10 µM): 2130 nM
viability, T/C [1]: 111%
viability, T/C [2]: 85.8%
viability, T/C [3]: 85.7%
viability, T/C [4]: 59.5%
viability, T/C [25]: 58.6%
viability, T/C [26]: 23.1%
viability, T/C [5]: 122%
viability, T/C [6]: 102%
viability, T/C [7]: 82.3%
viability, T/C [8]: 67.8%
viability, T/C [27]: 43.1%
viability, T/C [28]: 17.7%
viability, T/C [9]: 104%
viability, T/C [10]: 69%
viability, T/C [11]: 81.9%
viability, T/C [12]: 73%
viability, T/C [29]: 38.4%
viability, T/C [30]: 17.3%
viability, T/C [13]: 96.1%
viability, T/C [14]: 80.3%
viability, T/C [15]: 84.8%
viability, T/C [16]: 64.8%
viability, T/C [31]: 65.8%
viability, T/C [32]: 14.9%
viability, T/C [17]: 86.2%
viability, T/C [18]: 87.8%
viability, T/C [19]: 90.2%
viability, T/C [20]: 68.4%
viability, T/C [33]: 45.1%
viability, T/C [34]: 16.3%
viability, T/C [21]: 105%
viability, T/C [22]: 82.5%
viability, T/C [23]: 95.2%
viability, T/C [24]: 58.1%
viability, T/C [35]: 44.3%
viability, T/C [36]: 17.3%

COc1cc(C2c3cc4c(cc3C(OC3OC5COC(C)OC5C(O)C3O)C3COC(=O)C23)OCO4)cc(OC)c1O (stereo unspecified) + Nc1ccc(C#CCN(C(=O)Cc2ncc(C(F)(F)F)cc2C(F)(F)F)c2ccc(F)cc2)nn1
IC50 (second compound 0.0316 µM): 832 nM
IC50 (second compound 0.1 µM): 666 nM
IC50 (second compound 0.316 µM): 762 nM
IC50 (second compound 1 µM): 616 nM
IC50 (second compound 3.16 µM): 597 nM
IC50 (second compound 10 µM): 565 nM
viability, T/C [1]: 95.1%
viability, T/C [2]: 86.1%
viability, T/C [3]: 87.8%
viability, T/C [4]: 42.9%
viability, T/C [25]: 26.8%
viability, T/C [26]: 31.6%
viability, T/C [5]: 99.5%
viability, T/C [6]: 90.8%
viability, T/C [7]: 74.5%
viability, T/C [8]: 35.5%
viability, T/C [27]: 37.5%
viability, T/C [28]: 29.9%
viability, T/C [9]: 108%
viability, T/C [10]: 68.9%
viability, T/C [11]: 69.1%
viability, T/C [12]: 49.6%
viability, T/C [29]: 31.2%
viability, T/C [30]: 30.4%
viability, T/C [13]: 83.3%
viability, T/C [14]: 89.2%
viability, T/C [15]: 60.3%
viability, T/C [16]: 43.9%
viability, T/C [31]: 28%
viability, T/C [32]: 31.7%
viability, T/C [17]: 109%
viability, T/C [18]: 86.7%
viability, T/C [19]: 64.6%
viability, T/C [20]: 37.6%
viability, T/C [33]: 32.7%
viability, T/C [34]: 31.3%
viability, T/C [21]: 110%
viability, T/C [22]: 79.2%
viability, T/C [23]: 64.8%
viability, T/C [24]: 38.4%
viability, T/C [35]: 29%
viability, T/C [36]: 33.7%
